Measured values as given in patent publication US9789082B2, “Somatostatin receptor subtype 4 (SSTR4) agonists” (Centrexion Therapeutics Corporation, priority 2013, dated 2017).
pEC50: −log10 of the molar value.

Experiments:
[1] = target: human Somatostatin 4 receptor (SSTR4) (Homo sapiens (Human), UniProt P31391); experiment: cAMP assay with human somatostatin 4 receptor (hSSTR4 expressing H4 cells); assay type: cell-based; settings: cAMP assay, read-out: SSTR4 agonism EC50
Experimental: Camp Assay Method Description for cAMP Assay with Human Somatostatin 4 Receptor
The activation of the SSTR4 receptor (Gi coupled) causes an inhibition of intracellular cAMP after stimulation with Forskolin, which can be quantifiable by use of a suitable assay Kit and an adequate plate reader. This technique is used to characterize pharmacological effects of the SSTR4 receptor agonists by use of hSSTR4 expressing H4 cells.
Compounds are dissolved and diluted in DMSO. The final test solution contains 1% DMSO. […] Cells are centrifuged and suspended in assay buffer (incl. 1:100 diluted Alexa antibody).
For the assay 5 μl of a cell suspension (approximately 5000 cells/well)—incl. Alexa antibody (diluted 1:100) are added into a 384 well MTP microtitre plate excepting one row or column (depending on the plate layout), which is reserved for the standard curve. Then 2 μl of compound sample is added as concentration response curve (e.g. 1e-5 M to 6e-10 M), usually in triplicates. Each assay contains incubations with vehicle controls instead of compound as controls for non-inhibited cAMP generation (100% CTL; ‘high values’) and incubations with 1 μM Somatosatin as controls for full inhibition and background (0% CTL; […]). […] Then the plates are shaken briefly and incubated for 60 min at room temperature. After 60 min 10 μl of the detection mix is added into all wells followed by an additional incubation period of 1 h. The plates are read in a suitable plate reader.
From this ratio, cAMP concentrations are calculated from standard curve and the EC50 is estimated by least square curve fit program.
The EC50 values were obtained with the aid of the above described cAMP ASSAY.

[2] = Metabolic stability in pooled human liver microsomes (half-life); assay type: in vitro ADME; settings: 1 μM test compound; for half-life at 1 μM: pooled human liver microsomes, pH 7.6, 37° C., read-out: Half-life t1/2
Experimental: The metabolic stability of the compounds according to the invention may be investigated as follows:
The metabolic degradation of the test compound is assayed at 37° C. with pooled human liver microsomes. The final incubation volume of 100 μl per time point contains TRIS buffer pH 7.6 at room temperature (0.1 M), magnesium chloride (5 mM), microsomal protein (1 mg/mL) and the test compound at a final concentration of 1 μM. Following a short preincubation period at 37° C., the reactions are initiated by addition of beta-nicotinamide adenine dinucleotide phosphate, reduced form (NADPH, 1 mM), and terminated by transferring an aliquot into solvent after different time points. After centrifugation (10000 g, 5 min), an aliquot of the supernatant is assayed by LC-MS/MS for the amount of parent compound. The half-life is determined by the slope of the semi-logarithmic plot of the concentration-time profile.

human Somatostatin 4 receptor (SSTR4), sequence (P31391 whole entry): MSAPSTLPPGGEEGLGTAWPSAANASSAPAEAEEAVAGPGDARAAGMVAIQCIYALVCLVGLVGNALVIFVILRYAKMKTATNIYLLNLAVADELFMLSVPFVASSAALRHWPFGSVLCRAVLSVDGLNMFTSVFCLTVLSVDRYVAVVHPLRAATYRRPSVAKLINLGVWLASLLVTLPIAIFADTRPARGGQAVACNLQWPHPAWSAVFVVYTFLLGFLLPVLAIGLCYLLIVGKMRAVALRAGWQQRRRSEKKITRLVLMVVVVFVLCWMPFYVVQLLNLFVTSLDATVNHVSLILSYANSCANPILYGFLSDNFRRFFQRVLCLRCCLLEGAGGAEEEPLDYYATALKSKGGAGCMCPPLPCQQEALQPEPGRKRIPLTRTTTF

Row | half-life at 1 μM [2] [h] | Half-life t1/2 ([2]; 37° C.) [h] | SMILES | pEC50 [1]
1 | > 2.17 | – | Cl.Cn1nccc1OCC(C)(C)NC(=O)[C@H]1[C@@H]2CNC[C@@H]21 [Example 60] | 7.11
2 | > 2.17 | – | Cc1cccc(OCC(C)(C)NC(=O)[C@H]2[C@@H]3CNC[C@@H]32)c1 [Example 43] | 6.73
3 | > 2.17 | – | CCn1nc(C(C)(C)NC(=O)[C@H]2[C@@H]3CNC[C@@H]32)c2ccccc21 [Example 95] | 8.44
4 | > 2.17 | – | CC(NC(=O)[C@H]1[C@@H]2CNC[C@@H]21)c1nn(C)c2ccccc12 (single isomer, unassigned) [Example 113] | 7.72
5 | – | >2.17 | CC(C)(NC(=O)[C@H]1[C@@H]2CNC[C@@H]21)c1n[nH]c2c(C(F)(F)F)cccc12 [Example 110] | –
6 | > 2.17 | – | Cc1cc(Cl)ccc1OCC(C)(C)NC(=O)[C@H]1[C@@H]2CNC[C@@H]21.Cl [Example 15] | 8.11
7 | > 2.17 | – | CC(C)(NC(=O)[C@H]1[C@@H]2CNC[C@@H]21)c1nc(C2CC2)c2c(F)cccn12 [Example 149] | 9.00
8 | > 2.17 | – | CC(C)(NC(=O)[C@H]1[C@@H]2CNC[C@@H]21)C1CCc2ccccc2O1.Cl (some centres unmarked) [Example 28] | 7.95
9 | > 2.17 | – | CC(C)(NC(=O)[C@H]1[C@@H]2CNC[C@@H]21)c1nc(C(F)(F)F)c2ccccn12.Cl [Example 31] | 8.72
10 | > 2.17 | – | CC(C)(NC(=O)[C@H]1[C@@H]2CNC[C@@H]21)c1nc(C(F)(F)F)nc2ccccc12 [Example 139] | 7.96
11 | > 2.17 | – | CC(NC(=O)[C@H]1[C@@H]2CNC[C@@H]21)c1nn(C)c2c(Cl)cccc12 (single isomer, unassigned) [Example 116] | 8.68
12 | > 2.17 | – | CC(C)(COc1ccccc1Cl)NC(=O)[C@H]1[C@@H]2CNC[C@@H]21.Cl [Example 42] | 7.83
13 | > 2.17 | – | Cn1nc(C(C)(C)NC(=O)[C@H]2[C@@H]3CNC[C@@H]32)c2cccc(C(F)(F)F)c21 [Example 76] | 9.10
14 | > 2.17 | – | Cc1ccccc1OCC(C)NC(=O)[C@H]1[C@@H]2CNC[C@@H]21.Cl (some centres unmarked) [Example 59] | 7.19
15 | > 2.17 | – | Cn1nc(C(C)(C)NC(=O)[C@H]2[C@@H]3CNC[C@@H]32)c2ccc(F)cc21 [Example 75] | 9.40
16 | > 2.17 | – | Cc1cc(C#N)ccc1OCC(C)(C)NC(=O)[C@H]1[C@@H]2CNC[C@@H]21.Cl [Example 17] | 9.00
17 | > 2.17 | – | CC(NC(=O)[C@H]1[C@@H]2CNC[C@@H]21)c1nn(C)c2ccccc12 (some centres unmarked) [Example 111] | 7.84
18 | > 2.17 | – | CC(C)(COc1ccccc1C1CC1)NC(=O)[C@H]1[C@@H]2CNC[C@@H]21 [Example 70] | 8.24
19 | > 2.17 | – | Cc1cccc2c(C(C)(C)NC(=O)[C@H]3[C@@H]4CNC[C@@H]43)n(C)nc12 [Example 108] | –
20 | > 2.17 | – | Cn1nc(C(C)(C)NC(=O)[C@H]2[C@@H]3CNC[C@@H]32)c2cccc(Cl)c21 [Example 106] | –

Further lines, the compound ahead of its results:

Row | SMILES | half-life at 1 μM [2] [h] | Half-life t1/2 ([2]; 37° C.) [h] | pEC50 [1]
21 | CC(C)(NC(=O)[C@H]1[C@@H]2CNC[C@@H]21)c1ncc2c(Cl)cccn12 [Example 143] | > 2.17 | – | 9.52
22 | Cc1cc(C(C)(C)NC(=O)[C@H]2[C@@H]3CNC[C@@H]32)c2ccccc2n1 [Example 33] | > 2.17 | – | 8.34
23 | Cc1cc(F)cnc1OCC(C)(C)NC(=O)[C@H]1[C@@H]2CNC[C@@H]21 [Example 48] | > 2.17 | – | 8.43
24 | Cn1nc(C(C)(C)NC(=O)[C@H]2[C@@H]3CNC[C@@H]32)c2cccnc21 [Example 32] | > 2.17 | – | 8.00
25 | CC(C)(COc1cnccc1C1CC1)NC(=O)[C@H]1[C@@H]2CNC[C@@H]21 [Example 57] | > 2.17 | – | 7.79
26 | CC(C)(COc1ncccc1C1CC1)NC(=O)[C@H]1[C@@H]2CNC[C@@H]21 [Example 64] | > 2.17 | – | 8.70
27 | CC(C)(COc1ccccc1C(F)(F)F)NC(=O)[C@H]1[C@@H]2CNC[C@@H]21.Cl [Example 12] | > 2.17 | – | 9.22
28 | CCc1ccccc1OCC(C)(C)NC(=O)[C@H]1[C@@H]2CNC[C@@H]21.Cl [Example 39] | > 2.17 | – | 8.52
29 | Cc1cccn2c([C@H](C)NC(=O)[C@H]3[C@@H]4CNC[C@@H]43)ncc12 [Example 159] | > 2.17 | – | 7.81
30 | CC(C)(NC(=O)[C@H]1[C@@H]2CNC[C@@H]21)c1ncnc2c(Cl)cccc12 [Example 156] | > 2.17 | – | 8.13
31 | Cc1cc(F)cn2c(C(C)(C)NC(=O)[C@H]3[C@@H]4CNC[C@@H]43)ncc12 [Example 158] | > 2.17 | – | 9.10
32 | Cc1ccnnc1OCC(C)(C)NC(=O)[C@H]1[C@@H]2CNC[C@@H]21.Cl [Example 67] | > 2.17 | – | 7.18
33 | CC(C)(NC(=O)[C@H]1[C@@H]2CNC[C@@H]21)c1ncccc1C(F)(F)F.Cl [Example 23] | > 2.17 | – | 7.76
34 | CC(C)(NC(=O)[C@H]1[C@@H]2CNC[C@@H]21)c1nc(C2CC2)c2ccccn12.Cl [Example 120] | > 2.17 | – | 8.72
35 | CC(C)(NC(=O)[C@H]1[C@@H]2CNC[C@@H]21)c1ncc2c(F)cccn12.Cl [Example 133] | > 2.17 | – | 8.15
36 | CC(C)(NC(=O)[C@H]1[C@@H]2CNC[C@@H]21)c1cnn2ccccc12 [Example 167] | > 2.17 | – | 8.31
37 | Cc1cccc2c(C(C)(C)NC(=O)[C@H]3[C@@H]4CNC[C@@H]43)ncnc12 [Example 88] | > 2.17 | – | 9.10

Row | SMILES | half-life at 1 μM [2] [h] | Half-life t1/2 ([2]; 37° C.) [h] | pEC50 [1]
38 | Cc1nc(C(C)(C)NC(=O)[C@H]2[C@@H]3CNC[C@@H]32)n2cccc(F)c12 [Example 151] | > 2.17 | – | 9.22
39 | CC(C)(COc1cccnc1C(F)(F)F)NC(=O)[C@H]1[C@@H]2CNC[C@@H]21.Cl [Example 18] | > 2.17 | – | 7.69
40 | CC(C)(NC(=O)[C@H]1[C@@H]2CNC[C@@H]21)c1ccc(Cl)c(Cl)c1.Cl [Example 8] | > 2.17 | – | 8.55
41 | Cc1cccn2c(C3(NC(=O)[C@H]4[C@@H]5CNC[C@@H]54)CC3)ncc12 [Example 145] | > 2.17 | – | 9.05
42 | Cc1nc(C(C)(C)NC(=O)[C@H]2[C@@H]3CNC[C@@H]32)n2ccccc12 [Example 45] | > 2.17 | – | 8.92
43 | Cn1nc(C(C)(C)NC(=O)[C@H]2[C@@H]3CNC[C@@H]32)c2cc(F)ccc21 [Example 73] | – | – | 7.92
44 | Cc1cc(Br)ccc1OCC(C)(C)NC(=O)[C@H]1[C@@H]2CNC[C@@H]21 [Example 14] | – | – | 8.14
45 | CC(C)(COc1ccccc1F)NC(=O)[C@H]1[C@@H]2CNC[C@@H]21 [Example 41] | – | – | 6.71
46 | Cc1cncnc1OCC(C)(C)NC(=O)[C@H]1[C@@H]2CNC[C@@H]21 [Example 66] | – | – | 6.85
47 | CC(C)(COc1cncc2ccccc12)NC(=O)[C@H]1[C@@H]2CNC[C@@H]21 [Example 55] | – | – | 7.51
48 | Cc1nc(C(C)NC(=O)[C@H]2[C@@H]3CNC[C@@H]32)c2cccc(C)c2n1 (single isomer, unassigned) [Example 165] | – | – | 7.05
49 | CC(C)(NC(=O)[C@H]1[C@@H]2CNC[C@@H]21)c1nc(Br)c2ccccn12 [Example 123] | – | – | 8.82
50 | CC(C)(NC(=O)[C@H]1[C@@H]2CNC[C@@H]21)c1ncc2cc(C(F)(F)F)ccn12 [Example 122] | – | – | 5.87
51 | CC(C)(NC(=O)[C@H]1[C@@H]2CNC[C@@H]21)c1nc(C#N)c2ccccn12 [Example 132] | – | – | 7.14
52 | CC(C)(NC(=O)[C@H]1[C@@H]2CNC[C@@H]21)c1ncc2n1CCCC2 [Example 181] | – | – | 7.38
53 | CC(C)(NC(=O)[C@H]1[C@@H]2CNC[C@@H]21)c1ncc2c(OC(F)(F)F)cccn12 [Example 152] | – | – | 7.58
